Molecules are shown by their SMILES. “And” between values parts separate entries of the source, which are not always exact repeats. Equal values may be shown once.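 A five-concentration, 48-hour dose response in 96-well plates underlies each endpoint, interpolated linearly between surrounding concentrations. The concentration for 50% growth inhibition is given as GI50. TGI marks complete inhibition of growth.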

Some test systems named below: MDA-MB-435; T-47D breast; M19-MEL melanoma; SNB-78 CNS; BT-549 breast; HS 578T breast; XF 498 CNS; MDA-N; RXF-631 renal; SN12K1 renal; P388 leukemia; P388/ADR leukemia.
Common to all, as to assay: NCI tumour cell line growth inhibition, 48 h

For `CCC1(OC(=O)CN)C(=O)OCc2c1cc1n(c2=O)Cc2cc3ccccc3nc2-1` (stereo not given), the GI50 with MDA-MB-435 was 0.13 µM; in the assay on T-47D breast, 0.0426 µM; with M19-MEL melanoma, 0.0174 µM; in the assay on SNB-78 CNS, 0.53 µM; in the assay on BT-549 breast, 0.459 µM; in the assay on XF 498 CNS it was 0.0328 µM. Moreover, in the assay with MDA-N, the GI50 was 0.122 µM and 0.36 µM. Further, the TGI is 0.348 µM and 0.504 µM with MDA-MB-435; 0.916 µM with T-47D breast; 0.237 µM in the assay with M19-MEL melanoma; over 100 µM in the assay on SNB-78 CNS; over 90.7 µM in the assay with HS 578T breast; 0.431 µM with XF 498 CNS.

For `COc1cc(NS(C)(=O)=O)ccc1NCc1c2ccccc2nc2ccccc12`, the TGI in the assay on RXF-631 renal came to 71.3 µM; with XF 498 CNS it was 65.9 µM.

As to `COC(=O)C1CC(OC(C)=O)C=C2C(=O)CCC21` (stereo not given), the TGI in the assay on RXF-631 renal was 86.8 µM; with M19-MEL melanoma, 59.9 µM; in the assay on SNB-78 CNS, 72.8 µM.

Consider `COC(=O)C(CC(=O)Nc1ccc(Cl)c(Cl)c1)C(=O)C(=O)Nc1ccc(Cl)c(Cl)c1` (stereo not given), for which the TGI in the assay with RXF-631 renal, in the assay with M19-MEL melanoma and in the assay with SNB-78 CNS was over 100 µM each time.

Regarding `COc1ccc2oc(-c3ccc(OC)c(OC)c3OC)cc(=O)c2c1`, the TGI in the assay with M19-MEL melanoma and in the assay with XF 498 CNS was over 100 µM each time.

Turning to `Cc1cccc(C)c1N1C(=O)C(=O)C(c2nc3ccccc3s2)/C(=N/NC(=O)c2ccccc2O)C1=O` (stereo not given), the TGI in the assay with RXF-631 renal, with M19-MEL melanoma, in the assay on SNB-78 CNS and in the assay with XF 498 CNS was over 100 µM each time.

With `CO[C@H]1C[C@](C)(O)Cc2cc3c(c(O)c21)C(=O)c1c(O)cc2c(c1C3=O)O[C@@H]1O[C@@]2(C)[C@H](O)[C@@H](N(C)C)[C@@H]1O`, the TGI in the assay on SN12K1 renal amounted to 2.15 µM; in the assay with P388 leukemia, 3.3 µM; in the assay on MDA-MB-435, 5.23 µM; in the assay with P388/ADR leukemia, 16.1 µM; with RXF-631 renal it was 2.71 µM; in the assay on T-47D breast it was 17.4 µM. Further, the TGI was 2.56 µM and 9.81 µM in the assay on M19-MEL melanoma; 9.66 µM and 21.8 µM in the assay with SNB-78 CNS; 7.3 µM in the assay with BT-549 breast; 22.6 µM with HS 578T breast; 2.51 µM and 0.689 µM with XF 498 CNS; 10.6 µM in the assay with MDA-N. The GI50 in the assay with SNB-78 CNS is 5.05 µM; in the assay with XF 498 CNS, 1.15 µM.

With `N#CC(C#N)=Cc1ccc(CP(=O)(O)O)cc1`, the TGI in the assay on RXF-631 renal, in the assay with M19-MEL melanoma, in the assay on SNB-78 CNS and in the assay with XF 498 CNS was over 100 µM in each case.

For the molecule `CCCCCCCCCCCCCCCCOP(=O)([O-])OCC[N+](C)(C)C`, the TGI with P388 leukemia is over 66.3 µM; in the assay with MDA-MB-435, 5.23 µM and 39.3 µM; in the assay on P388/ADR leukemia, over 86.6 µM; with T-47D breast it was 16.2 µM and 35.9 µM; in the assay with M19-MEL melanoma, 41.3 µM; with SNB-78 CNS, over 100 µM. For the same molecule, the TGI with BT-549 breast is 5.87 µM and 17.8 µM; with HS 578T breast, 18.9 µM and 40.7 µM; with XF 498 CNS, 60.9 µM; in the assay with MDA-N it was 54.8 µM. Besides, the GI50 in the assay on MDA-MB-435 is 2 µM; with T-47D breast, 4.42 µM; in the assay with BT-549 breast it was 1.63 µM; with HS 578T breast it was 4.21 µM.

For the molecule `COc1cc(C(C)c2cc3c(cc2OCCNC(=O)COc2cc4c(cc2C(C)c2cc(OC)c(OC)c(OC)c2)OCO4)OCO3)cc(OC)c1OC` (stereo not given), the TGI in the assay with RXF-631 renal and in the assay on M19-MEL melanoma was over 100 µM each time.

As for `O=C(Nc1ccccc1-c1nn(CN2CCNCC2)c(=S)n(CN2CCNCC2)c1=O)C(F)(F)F`, the TGI in the assay with RXF-631 renal was 46.8 µM; with M19-MEL melanoma, 32.1 µM; in the assay on SNB-78 CNS it was 62.4 µM.

Consider `Cc1ccc2nc3cc(C)c(=O)cc-3sc2c1`, for which the TGI in the assay on M19-MEL melanoma is 30.7 µM; with SNB-78 CNS it was over 100 µM.

Turning to `Cc1nc(N)nc(N)c1CCCc1ccccc1`, the TGI in the assay with M19-MEL melanoma, in the assay with SNB-78 CNS and with XF 498 CNS was over 100 µM in each case.

Turning to `O=C1CNC(=O)c2[nH]cnc2N1`, the TGI in the assay on RXF-631 renal, with M19-MEL melanoma, with SNB-78 CNS and in the assay with XF 498 CNS was over 100 µM throughout.

Regarding `Cc1ccc(S(=O)(=O)c2ccc(C)cc2[N+](=O)[O-])cc1`, the TGI in the assay on M19-MEL melanoma and in the assay on SNB-78 CNS was over 100 µM in each case.

For the molecule `N/N=C(\c1nc2ccc(Cl)cc2[nH]c1=O)C(O)c1ccc(Cl)c(Cl)c1` (stereo not given), the TGI in the assay on RXF-631 renal, in the assay on M19-MEL melanoma, in the assay with SNB-78 CNS and in the assay on XF 498 CNS was over 100 µM throughout.

Turning to `COc1ccc2c(c1OC)C(C(Cl)(Cl)Cl)N1CCc3cc4c(cc3C1=C2)OCO4` (stereo not given), the TGI is 27 µM in the assay on MDA-MB-435; over 100 µM in the assay on T-47D breast; 8.63 µM in the assay with BT-549 breast; over 100 µM with HS 578T breast; 41 µM with MDA-N.

For the molecule `COC1=C(Cl)C(=O)c2c(O)ccc(O)c2C1=O`, the TGI in the assay with MDA-MB-435 was determined as 3.13 µM; in the assay on T-47D breast, 3.61 µM; in the assay with BT-549 breast it was 3.31 µM; in the assay with HS 578T breast, 4.96 µM; in the assay with MDA-N, 4.8 µM.

Turning to `CCn1c2c(c3ccccc31)[C@@H](c1ccc(Cl)cc1)CC1C(=O)N(c3ccccc3)C(=O)C21` (stereo not given in full), the TGI in the assay with M19-MEL melanoma, with SNB-78 CNS and with XF 498 CNS was over 100 µM throughout.

`CC1(C)C2CCC1C(=O)[C@@]1(C=CC(=O)CC1)C2` (stereo not given in full): the TGI in the assay on MDA-MB-435, in the assay with T-47D breast, with BT-549 breast, with HS 578T breast and in the assay with MDA-N was over 100 µM each time.

In the case of `C1CN(P2(N3CC3)=NP(N3CC3)(N3CC3)=NP(N3CC3)(N3CC3)=N2)CCO1` (stereo not given), the TGI in the assay on M19-MEL melanoma, in the assay with SNB-78 CNS and with XF 498 CNS was over 100 µM in each case.

For the origin of these results see PubChem BioAssay (NCI).
